According to patent publication US20250215029A1 (Recludix Pharma, Inc., priority 2022, published 2025):

What follows are compounds tested against T1, pY705-STAT3 in PBMC (Homo sapiens, UniProt P40763) (assay: MSD-pSTAT-PBMC Assay (pSTAT3, IL-6 stimulated)). Conditions: PBMC, compound 3 hrs, then 10 ng/mL IL-6 for 10 min; Table 115; read-out: STAT3.
T1 construct: Cryopreserved Peripheral Blood Mononuclear Cells (PBMC) are from AllCells; host or cells: cryopreserved PBMC
T1 sequence (P40763 whole entry): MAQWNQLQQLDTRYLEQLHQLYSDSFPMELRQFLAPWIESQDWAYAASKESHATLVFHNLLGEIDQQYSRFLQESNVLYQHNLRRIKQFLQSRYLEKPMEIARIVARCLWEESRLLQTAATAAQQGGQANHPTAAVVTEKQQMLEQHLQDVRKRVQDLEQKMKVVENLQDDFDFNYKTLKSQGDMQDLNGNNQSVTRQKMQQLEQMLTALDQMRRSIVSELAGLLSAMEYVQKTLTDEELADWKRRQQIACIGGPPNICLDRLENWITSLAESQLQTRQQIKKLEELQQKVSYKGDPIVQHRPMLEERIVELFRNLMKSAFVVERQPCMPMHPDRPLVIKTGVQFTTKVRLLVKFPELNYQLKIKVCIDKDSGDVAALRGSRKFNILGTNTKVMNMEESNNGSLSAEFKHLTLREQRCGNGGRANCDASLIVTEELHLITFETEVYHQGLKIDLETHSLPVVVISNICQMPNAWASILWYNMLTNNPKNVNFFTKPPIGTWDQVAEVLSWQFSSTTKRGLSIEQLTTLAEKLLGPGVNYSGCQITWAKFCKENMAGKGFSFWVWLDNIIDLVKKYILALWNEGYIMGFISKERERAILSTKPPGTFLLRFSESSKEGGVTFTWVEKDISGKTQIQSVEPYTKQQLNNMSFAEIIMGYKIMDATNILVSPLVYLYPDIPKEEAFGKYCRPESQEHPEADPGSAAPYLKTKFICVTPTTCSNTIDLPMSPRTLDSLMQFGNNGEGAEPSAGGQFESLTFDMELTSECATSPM
Format: cell-based
Summary of the method: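 PBMC (human, cryopreserved, overnight recovery) + cpd 3 hrs → IL-6 10 ng/mL (STAT3) or IL-4 1 ng/mL (STAT6) ×10 min → lysis with protease/phosphatase inhibitors → MSD capture/phospho detection. IC50, variable slope, DMSO-normalized.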
`CCCOC(=O)[C@H](C)NP(=O)(Cc1ccc2sc(C(=O)N[C@H]3CCC[C@H]4CC[C@@H](C(=O)N5CC(c6cnccc6Cl)C5)N4C3=O)cc2c1)Oc1ccccc1` (stereo partly drawn) [Compound 268, propyl (((2-(((3S,6S,9aS)-3-(3-(4-chloropyridin-3-yl)azetidine-1-carbonyl)-5-oxooctahydro-1H-pyrrolo[1,2-a]azepin-6-yl)carbamoyl)benzo [b]thiophen-5-yl)methyl)(phenoxy)phosphoryl)-L-alaninate] showed an IC50 of 100 to 1000 nM.
With `CCCOC(=O)[C@H](C)NP(=O)(Oc1ccccc1)C(F)c1ccc2sc(C(=O)N[C@H]3CCC[C@H]4CC[C@@H](C(=O)N5CC(c6cnccc6CC)C5)N4C3=O)cc2c1` (stereo partly drawn) [Compound 261, propyl (((2-(((3S,6S,9aS)-3-(3-(4-ethylpyridin-3-yl)azetidine-1-carbonyl)-5-oxooctahydro-1H-pyrrolo[1,2-a]azepin-6-yl)carbamoyl)benzo [b]thiophen-5-yl)fluoromethyl) (phenoxy)phosphoryl)-L-alaninate] the IC50 was less than 100 nM.
In the case of `CCCOC(=O)[C@H](C)NP(=O)(Oc1ccccc1)[C@H](F)c1ccc2sc(C(=O)N[C@H]3CCC[C@H]4CC[C@@H](C(=O)N5CC(c6cncnc6N6CCC6)C5)N4C3=O)cc2c1` (some centres unmarked) [Compound 1076], the IC50 is reported as less than 100 nM.
`CCCOC(=O)[C@H](C)NP(=O)(Oc1ccccc1)[C@@H](F)c1ccc2sc(C(=O)N[C@H]3CCC[C@H]4CC[C@@H](C(=O)N5CC(c6cnccc6N6CC(OC)C6)C5)N4C3=O)cc2c1` (stereo partly drawn) [Compound 1062, propyl (((R)-fluoro(2-(((3S,6S,9aS)-3-(3-(4-(3-methoxyazetidin-1-yl)pyridin-3-yl)azetidine-1-carbonyl)-5-oxooctahydro-1H-pyrrolo[1,2-a]azepin-6-yl)carbamoyl)benzo [b]thiophen-5-yl)methyl)(phenoxy)phosphoryl)-L-alaninate] was tested, and the IC50 was 100 to 1000 nM.
`CCCOC(=O)[C@H](C)NP(=O)(Cc1ccc2sc(C(=O)N[C@H]3CCC[C@H]4CC[C@@H](C(=O)N5CC(c6c(OC)ccnc6C(F)F)C5)N4C3=O)cc2c1)Oc1ccccc1` (stereo partly drawn) [Compound 990, propyl (((2-(((3S,6S, 9aS)-3-(3-(2-(difluoromethyl)-4-methoxypyridin-3-yl)azetidine-1-carbonyl)-5-oxooctahydro-1H-pyrrolo[1,2-a]azepin-6-yl)carbamoyl)benzo [b]thiophen-5-yl)methyl)(phenoxy)phosphoryl)-L-alaninate] gave an IC50 greater than 3000 nM.
Compound `CCCOC(=O)[C@H](C)NP(=O)(Oc1ccccc1)C(F)c1ccc2sc(C(=O)N[C@H]3CCCC[C@H]4CC[C@@H](C(=O)N5CC(NCCOC)(c6ccccn6)C5)N4C3=O)cc2c1` (stereo partly drawn) [Compound 987, propyl ((fluoro(2-(((3S,6S,10aS)-3-(3-((2-methoxyethyl)amino)-3-(pyridin-2-yl)azetidine-1-carbonyl)-5-oxodecahydropyrrolo [1,2-a]azocin-6-yl)carbamoyl)benzo [b]thiophen-5-yl)methyl)(phenoxy)phosphoryl)-L-alaninate] has an IC50 of 100 to 1000 nM.
`CCCOC(=O)[C@H](C)NP(=O)(Oc1ccccc1)[C@@H](F)c1ccc2sc(C(=O)N[C@H]3CCC[C@H]4CC[C@@H](C(=O)N5CC(c6cnccc6OCC)C5)N4C3=O)cc2c1` (stereo partly drawn) [Compound 494, propyl (((R)-(2-(((3S,6S,9aS)-3-(3-(4-ethoxypyridin-3-yl)azetidine-1-carbonyl)-5-oxooctahydro-1H-pyrrolo[1,2-a]azepin-6-yl)carbamoyl)benzo [b]thiophen-5-yl)fluoromethyl) (phenoxy)phosphoryl)-L-alaninate] showed an IC50 of less than 100 nM.
Compound `COc1ccncc1C1CN(C(=O)[C@@H]2CC[C@@H]3CCC[C@H](NC(=O)c4cc5cc([C@@H](F)[P@@](=O)(N[C@@H](C)C(=O)OC(C)C)Oc6ccccc6)ccc5s4)C(=O)N32)C1` (single isomer, unassigned) [Compound 955] has an IC50 of less than 100 nM.
`CCCOC(=O)[C@H](C)NP(=O)(Oc1ccccc1)C(F)c1ccc2sc(C(=O)N[C@H]3CCCC[C@H]4CC[C@@H](C(=O)NCc5cnc6[nH]cnc6c5)N4C3=O)cc2c1` (stereo partly drawn) [Compound 265, propyl (((2-(((3S,6S,10aS)-3-(((3H-imidazo[4,5-b]pyridin-6-yl)methyl)carbamoyl)-5-oxodecahydropyrrolo [1,2-a]azocin-6-yl)carbamoyl)benzo [b]thiophen-5-yl)fluoromethyl) (phenoxy)phosphoryl)-L-alaninate] showed an IC50 of 100 to 1000 nM.
With `CCCOC(=O)[C@H](C)NP(=O)(Oc1ccccc1)[C@@H](F)c1ccc2sc(C(=O)N[C@H]3CCC[C@H]4CC[C@@H](C(=O)N5CC(c6cncc(F)c6NC)C5)N4C3=O)cc2c1` (stereo partly drawn) [Compound 1026, propyl (((R)-fluoro(2-(((3S,6S,9aS)-3-(3-(5-fluoro-4-(methylamino)pyridin-3-yl)azetidine-1-carbonyl)-5-oxooctahydro-1H-pyrrolo[1,2-a]azepin-6-yl)carbamoyl)benzo [b]thiophen-5-yl)methyl)(phenoxy)phosphoryl)-L-alaninate] the IC50 was less than 100 nM.
For `CC(C)C[C@H](NP(=O)(Cc1ccc2sc(C(=O)N[C@H]3CCC[C@H]4CC[C@@H](C(=O)N5CC(c6cccnc6)C5)N4C3=O)cc2c1)Oc1ccccc1)C(=O)OCc1ccccc1` (stereo partly drawn) [Compound 390, benzyl (((2-(((3S,6S,9aS)-5-oxo-3-(3-(pyridin-3-yl)azetidine-1-carbonyl)octahydro-1H-pyrrolo[1,2-a]azepin-6-yl)carbamoyl)benzo [b]thiophen-5-yl)methyl)(phenoxy)phosphoryl)-L-leucinate], the IC50 was 100 to 1000 nM.
In the case of `CCCOC(=O)[C@H](C)NP(=O)(Oc1ccccc1)[C@H](F)c1ccc2sc(C(=O)N[C@H]3CCC[C@H]4CC[C@@H](C(=O)N5CC(c6cnccc6OCC)C5)N4C3=O)cc2c1` (stereo partly drawn) [Compound 484, propyl (((S)-(2-(((3S,6S,9aS)-3-(3-(4-ethoxypyridin-3-yl)azetidine-1-carbonyl)-5-oxooctahydro-1H-pyrrolo[1,2-a]azepin-6-yl)carbamoyl)benzo [b]thiophen-5-yl)fluoromethyl) (phenoxy)phosphoryl)-L-alaninate], the IC50 is reported as less than 100 nM.
`COC[C@H](NP(=O)(Cc1ccc2sc(C(=O)N[C@H]3CCC[C@H]4CC[C@@H](C(=O)N5CC(c6cccnc6)C5)N4C3=O)cc2c1)Oc1ccccc1)C(=O)OCc1ccccc1` (stereo partly drawn) [Compound 946, benzyl O-methyl-N-(((2-(((3S,6S,9aS)-5-oxo-3-(3-(pyridin-3-yl)azetidine-1-carbonyl)octahydro-1H-pyrrolo[1,2-a]azepin-6-yl)carbamoyl)benzo [b]thiophen-5-yl)methyl)(phenoxy)phosphoryl)-L-serinate] was tested, and the IC50 was 100 to 1000 nM.
`CCCOC(=O)[C@H](C)N[P@@](=O)(Oc1ccccc1)[C@@H](F)c1ccc2sc(C(=O)N[C@H]3CCC[C@H]4CC[C@@H](C(=O)N5CC(c6cnccc6OC)C5)N4C3=O)cc2c1` (single isomer, unassigned) [Compound 1039] showed an IC50 of less than 100 nM.
With `CC(C)CC(=O)SCCOP(=O)(Cc1ccc2sc(C(=O)N[C@H]3CCC[C@H]4CC[C@@H](C(=O)N5CC(c6cccnc6)C5)N4C3=O)cc2c1)OCCSC(=O)CC(C)C` [Compound 1084, S,S′-(((((2-(((3S,6S,9aS)-5-oxo-3-(3-(pyridin-3-yl)azetidine-1-carbonyl)octahydro-1H-pyrrolo[1,2-a]azepin-6-yl)carbamoyl)benzo [b]thiophen-5-yl)methyl)phosphoryl)bis(oxy))bis(ethane-2,1-diyl)) bis(3-methylbutanethioate)] the IC50 was 100 to 1000 nM.
In the case of `CCCOC(=O)[C@H](C)NP(=O)(Cc1ccc2sc(C(=O)N[C@H]3CCC[C@H]4CC[C@@H](C(=O)N5CC(c6cccnc6)C5)N4C3=O)cc2c1)N1CCCC1=O` (stereo partly drawn) [Compound 433, propyl (((2-(((3S,6S,9aS)-5-oxo-3-(3-(pyridin-3-yl)azetidine-1-carbonyl)octahydro-1H-pyrrolo[1,2-a]azepin-6-yl)carbamoyl)benzo [b]thiophen-5-yl)methyl)(2-oxopyrrolidin-1-yl)phosphoryl)-L-alaninate], the IC50 is reported as 1000 to 3000 nM.
Work on `CCCOC(=O)[C@H](C)N[P@@](=O)(Oc1ccccc1)[C@@H](F)c1ccc2sc(C(=O)N[C@H]3C[C@H](C)C[C@H]4CC[C@@H](C(=O)N5CC(c6cnccc6OC)C5)N4C3=O)cc2c1` (single isomer, unassigned) [Compound 1040] yielded an IC50 of less than 100 nM.
Work on `CCCOC(=O)[C@H](C)NP(=O)(Cc1ccc2sc(C(=O)N[C@H]3CCC[C@H]4CC[C@@H](C(=O)N5CC(c6cnccc6N6CC[C@H]6COC)C5)N4C3=O)cc2c1)Oc1ccccc1` (stereo partly drawn) [Compound 301, propyl (((2-(((3S,6S,9aS)-3-(3-(4-((S)-2-(methoxymethyl)azetidin-1-yl)pyridin-3-yl)azetidine-1-carbonyl)-5-oxooctahydro-1H-pyrrolo[1,2-a]azepin-6-yl)carbamoyl)benzo [b]thiophen-5-yl)methyl)(phenoxy)phosphoryl)-L-alaninate] yielded an IC50 of less than 100 nM.
Compound `CCCOC(=O)[C@H](C)NP(=O)(Cc1ccc2sc(C(=O)N[C@H]3CCC[C@H]4CC[C@@H](C(=O)N5CC(c6cccnc6)C5)N4C3=O)cc2c1)OCC(C)(F)F` (stereo partly drawn) [Compound 437, propyl ((2,2-difluoropropoxy)((2-(((3S,6S,9aS)-5-oxo-3-(3-(pyridin-3-yl)azetidine-1-carbonyl)octahydro-1H-pyrrolo[1,2-a]azepin-6-yl)carbamoyl)benzo [b]thiophen-5-yl)methyl)phosphoryl)-L-alaninate] has an IC50 of 100 to 1000 nM.
`CC(C)COC(=O)[C@H](C)NP(=O)(Cc1ccc2sc(C(=O)N[C@H]3CCC[C@H]4CC[C@@H](C(=O)N5CC(c6cccnc6)C5)N4C3=O)cc2c1)Oc1ccccc1` (stereo partly drawn) [Compound 259, isobutyl (((2-(((3S,6S,9aS)-5-oxo-3-(3-(pyridin-3-yl)azetidine-1-carbonyl)octahydro-1H-pyrrolo[1,2-a]azepin-6-yl)carbamoyl)benzo [b]thiophen-5-yl)methyl)(phenoxy)phosphoryl)-L-alaninate] gave an IC50 of less than 100 nM.
